Tests used:
[1] = biological target: T1, TYK2-JH2 (aa 575-869, in-house) protein (Homo sapiens, UniProt P29597); assay: TYK2-JH2 biochemical assay (HTRF probe displacement); assay type: binding; conditions: Biochemical assay; read-out: TYK2-JH2 IC50
T1 construct: TYK2-JH2 (aa 575-869, in-house) protein; made in house
How it was run: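 HTRF probe-displacement format: compound dilutions (10 points, 5-fold, from 500 uM in DMSO at 500×) were combined with 0.2 nM TYK2-JH2 protein for 0.5 h at room temperature in HEPES pH 7.5 buffer with MgCl2, BSA, DTT and Brij-35. Percent inhibition came from the 615/665 nm fluorescence ratio, fitted to a four-parameter logistic for IC50.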

[2] = tested on: JAK2, TYK2/p-STAT4 (Tyr693) activated by IL-12 in NK-92 cell line; assay: IL-12-JAK2, TYK2/p-STAT4 (Tyr693) inhibition IC50 cellular assay; assay type: cell-based; conditions: for IC50: NK92, Cellular assay, read-out: pSTAT4/IL-12 IC50; for Selectivity fold (TYK2/JAK2): Cellular assay, pSTAT5/GM-CSF IC50 vs pSTAT4/IL-12 IC50
Text: Assay C: IL-12-JAK2, TYK2/p-STAT4 (Tyr693) Inhibition IC50 Cellular Assay
To evaluate the inhibition effect of compounds disclosed herein on JAK2, TYK2/p-STAT4 (Tyr693) activated by IL-12 in NK-92 cell line, NK-92 cells were collected and washed 3 times by DPBS and resuspended in MEM-α (GIBCO, Cat #12561056) with 10% FBS (Gibco, Cat #10099, Lot #1891605), without IL-2 (R&D systems, Cat #202-IL), starved overnight. Cells were collected and resuspended in 1640 medium (phenol red free, Gibco, Cat #11835-030) with 0.1% BSA, and 12.5 μl/5×10^4/well cell suspension were seeded to the 96-well plate (Corning, Cat #3799). Then cells were treated with compounds diluted in 0.2% DMSO 1640 medium, at 37° C., 1 h. Dilution is done according to the following protocol: (1) make 500× compounds solution in DMSO from 5 mM by 4-fold dilution, total 8 doses were included; (3) make 2× compounds solution in assay medium by transferring 0.5 μl serial 500× stock solution into 125 μl assay medium; (4) 15 μl of 2× serial solution is added to cells and incubate at 37° C. for 1 h, the final compound conc. is 10000, 2500, 625, 156.25, 39, 9.8, 2.4 and 0.61 nM, respectively. After 1 h, cells were treated with 2.5 μl medium containing IL-12 at 37° C. (R&D systems, Cat #219-IL-005, final conc. 40 ng/ml), 30 min. Following cells were lysed with 7.5 μl lysis buffer at RT, shaking on shaker for 1 h. 10 μL of cell lysate were transferred to a PE 384-well Proxiplate detection plate, and 5 μL of pre-mixed Alphascreen beads were added to each well. Covered the plate with a plate sealer, span 1000 rpm for 1 min, mix, Incubated overnight at room temperature. Read on BMG PheraStar with Alphascreen protocol. IC 50 values were calculated by fitting dependent data to the four-parameter logistic model using dotmatics software. The assay was performed by using AlphaLISA SureFire Ultra p-STAT4 (Tyr693) Assay Kit—High Volume (PE, Cat #ALSU-PST4-A-HV).

pSTAT5/GM-CSF = pSTAT5/GM-CSF cellular assay (JAK2 selectivity); assay type: cell-based; conditions: for Selectivity fold (TYK2/JAK2): pSTAT5/GM-CSF IC50 over pSTAT4/IL-12 IC50

T1 sequence (P29597 575-869): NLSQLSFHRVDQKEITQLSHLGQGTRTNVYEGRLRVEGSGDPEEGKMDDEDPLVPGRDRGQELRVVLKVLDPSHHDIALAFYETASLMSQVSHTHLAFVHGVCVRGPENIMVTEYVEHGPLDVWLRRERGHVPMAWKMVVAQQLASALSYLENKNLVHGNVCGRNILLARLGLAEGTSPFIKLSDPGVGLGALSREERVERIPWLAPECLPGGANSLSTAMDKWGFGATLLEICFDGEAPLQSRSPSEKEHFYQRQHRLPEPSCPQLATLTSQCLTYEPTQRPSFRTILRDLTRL

| Compound | IC50 [1] [nM] | IC50 [2] [nM] | IC50 (pSTAT5/GM-CSF) [nM] | Selectivity fold (TYK2/JAK2) (pSTAT5/GM-CSF) [fold] | Selectivity fold (TYK2/JAK2) [2] [fold] |
| --- | --- | --- | --- | --- | --- |
| CO[C@@H]1CCCN(c2cc(Nc3cc(NC(C)=O)ncc3-c3ccc4c(n3)OCC(C)(C)O4)nc(S(C)(=O)=O)c2)C1 [Example Q66, (R)-N-(5-(2,2-dimethyl-2,3-dihydro-[1,4]dioxino[2,3-b]pyridin-6-yl)-4-((4-(3-methoxypiperidin-1-yl)-6-(methylsulfonyl)pyridin-2-yl)amino)pyridin-2-yl)acetamide] | 0.029 | 0.792 | 3050 | 3845 |  |
| CC(=O)Nc1cc(Nc2cc(OC[C@H](C)O)cc(S(C)(=O)=O)c2)c(-c2ccn(C)n2)cn1 [Example J55, (S)-N-(4-((3-(2-hydroxypropoxy)-5-(methylsulfonyl)phenyl)amino)-5-(1-methyl-1H-pyrazol-3-yl)pyridin-2-yl)acetamide] | 0.033 | 11.4 | > 10000 | >878 |  |
| COc1cc(Nc2cc(NC(C)=O)ncc2-c2ccc(N3C[C@@H](C)O[C@@H](C)C3)cn2)nc(S(C)(=O)=O)c1 [Example C9, N-(5-(cis-2,6-dimethylmorpholino)-4′-((4-methoxy-6-(methylsulfonyl)pyridin-2-yl)amino)-[2,3′-bipyridin]-6′-yl)acetamide] | 0.027 | 0.672 | > 10000 |  | >14880 |
| CCn1ccc(-c2cnc(NC(C)=O)cc2Nc2cc(C)cc(S(C)(=O)=O)c2)n1 [Example M11, N-(5-(1-ethyl-1H-pyrazol-3-yl)-4-((3-methyl-5-(methylsulfonyl)phenyl)amino)pyridin-2-yl)acetamide] | 0.034 | 9.03 | > 10000 | >1107 |  |
| CC(=O)Nc1cc(Nc2cc(OCC#N)cc(S(C)(=O)=O)n2)c(-c2ccn(C)n2)cn1 [Example J20, N-(4-((4-(cyanomethoxy)-6-(methylsulfonyl)pyridin-2-yl)amino)-5-(1-methyl-1H-pyrazol-3-yl)pyridin-2-yl)acetamide] | 0.026 | 3 | > 10000 | >3333 |  |
| CC(=O)Nc1cc(Nc2ccc(F)c(S(C)(=O)=O)n2)c(-c2ccc(C(C)(C)O)cn2)cn1 [Example H34, N-(4′-((5-fluoro-6-(methylsulfonyl)pyridin-2-yl)amino)-5-(2-hydroxypropan-2-yl)-[2,3′-bipyridin]-6′-yl)acetamide] | 0.023 | 1.12 | > 10000 |  | >8928 |
| CC(=O)Nc1cc(Nc2cc(C)cc(S(C)(=O)=O)n2)c(-c2ccc(OC(C)C)nn2)cn1 [Example A29, N-(5-(6-isopropoxypyridazin-3-yl)-4-((4-methyl-6-(methylsulfonyl)pyridin-2-yl)amino)pyridin-2-yl)acetamide] | 0.042 | 0.452 | > 10000 |  | >22123 |
| CC(=O)Nc1cc(Nc2cccc(S(C)(=O)=O)n2)c(-c2cc(N3CCOCC3)n(C)n2)cn1 [Example O1, N-(5-(1-methyl-5-morpholino-1H-pyrazol-3-yl)-4-((6-(methylsulfonyl)pyridin-2-yl)amino)pyridin-2-yl)acetamide] | 0.017 | 0.414 | 1210 | 2929 |  |
| CC(=O)Nc1cc(Nc2cc(O[C@H]3C[C@@H](O)C3)cc(S(C)(=O)=O)n2)c(-c2ccc(C(C)(C)O)cn2)cn1 [Example H28, N-(4′-((4-(cis-3-hydroxycyclobutoxy)-6-(methylsulfonyl)pyridin-2-yl)amino)-5-(2-hydroxypropan-2-yl)-[2,3′-bipyridin]-6′-yl)acetamide] | 0.03 | 29.2 | > 10000 |  | >342 |
| CC(=O)Nc1cc(Nc2cc(F)cc(S(C)(=O)=O)c2)c(-c2ccc(C(C)(C)O)cn2)cn1 [Example H19, N-(4′-((3-fluoro-5-(methylsulfonyl)phenyl)amino)-5-(2-hydroxypropan-2-yl)-[2,3′-bipyridin]-6′-yl)acetamide] | 0.028 | 3.2 | > 10000 |  | >3125 |
| CCS(=O)(=O)c1cccc(Nc2cc(NC(C)=O)ncc2-c2ccn(C)n2)n1 [Example J5, N-(4-((6-(ethylsulfonyl)pyridin-2-yl)amino)-5-(1-methyl-1H-pyrazol-3-yl)pyridin-2-yl)acetamide] | 0.022 | 2.05 | > 10000 | >4878 |  |

Continued, in another order:

| IC50 [1] [nM] | IC50 [2] [nM] | IC50 (pSTAT5/GM-CSF) [nM] | Compound | Selectivity fold (TYK2/JAK2) (pSTAT5/GM-CSF) [fold] | Selectivity fold (TYK2/JAK2) [2] [fold] |
| --- | --- | --- | --- | --- | --- |
| 0.022 | 0.605 | > 10000 | [2H]C([2H])([2H])Oc1cc(Nc2cc(NC(C)=O)ncc2-c2ccc(N3C[C@@H](C)O[C@@H](C)C3)cn2)nc(S(C)(=O)=O)c1 [Example C17, N-(5-((cis)-2,6-dimethylmorpholino)-4′-((4-(methoxy-d3)-6-(methylsulfonyl)pyridin-2-yl)amino)-[2,3′-bipyridin]-6′-yl)acetamide] |  | >16528 |
| 0.022 | 0.504 | > 10000 | COCc1ccc(-c2cnc(NC(C)=O)cc2Nc2cc(COC)cc(S(C)(=O)=O)n2)nc1 [Example E9, N-(5-(methoxymethyl)-4′-((4-(methoxymethyl)-6-(methylsulfonyl)pyridin-2-yl)amino)-[2,3′-bipyridin]-6′-yl)acetamide] |  | >19960 |
| 0.024 | 0.402 | > 10000 | CC(=O)Nc1cc(Nc2cc(OC(C)C)cc(S(C)(=O)=O)n2)c(-c2ccn([C@@H]3CCOC3)n2)cn1 [Example M34, (R)-N-(4-((4-isopropoxy-6-(methylsulfonyl)pyridin-2-yl)amino)-5-(1-(tetrahydrofuran-3-yl)-1H-pyrazol-3-yl)pyridin-2-yl)acetamide] | >24875 |  |
| 0.028 | 0.605 | 8100 | CC(=O)Nc1cc(Nc2cc(C3CCOCC3)cc(S(C)(=O)=O)n2)c(-c2ccc3c(n2)OCC(C)(C)O3)cn1 [Example Q23, N-(5-(2,2-dimethyl-2,3-dihydro-[1,4]dioxino[2,3-b]pyridin-6-yl)-4-((6-(methylsulfonyl)-4-(tetrahydro-2H-pyran-4-yl)pyridin-2-yl)amino)pyridin-2-yl)acetamide] | 13390 |  |
| 0.021 | 1.7 | > 10000 | CC(=O)Nc1cc(Nc2cc(OC(C)C)cc(S(C)(=O)=O)n2)c(-c2ccc3c(n2)OCO3)cn1 [Example Q2, N-(5-([1,3]dioxolo[4,5-b]pyridin-5-yl)-4-((4-isopropoxy-6-(methylsulfonyl)pyridin-2-yl)amino)pyridin-2-yl)acetamide] | >5882 |  |
| 0.051 | 0.755 | 459 | CC(=O)Nc1cc(Nc2cc(C#N)cc(S(C)(=O)=O)n2)c(-c2ccc3c(n2)OCC(C)(C)O3)cn1 [Example Q63, N-(4-((4-cyano-6-(methylsulfonyl)pyridin-2-yl)amino)-5-(2,2-dimethyl-2,3-dihydro-[1,4]dioxino[2,3-b]pyridin-6-yl)pyridin-2-yl)acetamide] | 608 |  |
| 0.19 | 66.2 | > 10000 | CC(=O)Nc1cc(Nc2cc(C#N)cc(S(C)(=O)=O)c2)c(-c2ccn(C)n2)cn1 [Example J7, N-(4-((3-cyano-5-(methylsulfonyl)phenyl)amino)-5-(1-methyl-1H-pyrazol-3-yl)pyridin-2-yl)acetamide] | >150 |  |
| 0.03 | 9.12 | > 10000 | CCn1ccc(-c2cnc(NC(C)=O)cc2Nc2cc(COC)cc(S(C)(=O)=O)c2)n1 [Example M12, N-(5-(1-ethyl-1H-pyrazol-3-yl)-4-((3-(methoxymethyl)-5-(methylsulfonyl)phenyl)amino)pyridin-2-yl)acetamide] | >1096 |  |

— patent publication US20240043435A1, “TYK-2 INHIBITOR” (BEIGENE, LTD., priority 2020, published 2024)
